Columns and labels:
[1] = molecular target: T1, Rho-associated protein kinase 1 (Homo sapiens, UniProt Q13464); experiment: Inhibition of ROCK1 (unknown origin) by HTRF assay
[2] = molecular target: T2, Rho-associated protein kinase 2 (Homo sapiens, UniProt O75116); experiment: Inhibition of ROCK2 (unknown origin) by HTRF assay
[3] = Selectivity ratio of IC50 for ROCK1 (unknown origin) to IC50 for ROCK2 (unknown origin)
[4] = molecular target: T2, Rho-associated protein kinase 2; experiment: Inhibition of ROCK2 (unknown origin)
[5] = molecular target: T1, Rho-associated protein kinase 1; experiment: Inhibition of ROCK1 (unknown origin)

T2 sequence (O75116 whole entry): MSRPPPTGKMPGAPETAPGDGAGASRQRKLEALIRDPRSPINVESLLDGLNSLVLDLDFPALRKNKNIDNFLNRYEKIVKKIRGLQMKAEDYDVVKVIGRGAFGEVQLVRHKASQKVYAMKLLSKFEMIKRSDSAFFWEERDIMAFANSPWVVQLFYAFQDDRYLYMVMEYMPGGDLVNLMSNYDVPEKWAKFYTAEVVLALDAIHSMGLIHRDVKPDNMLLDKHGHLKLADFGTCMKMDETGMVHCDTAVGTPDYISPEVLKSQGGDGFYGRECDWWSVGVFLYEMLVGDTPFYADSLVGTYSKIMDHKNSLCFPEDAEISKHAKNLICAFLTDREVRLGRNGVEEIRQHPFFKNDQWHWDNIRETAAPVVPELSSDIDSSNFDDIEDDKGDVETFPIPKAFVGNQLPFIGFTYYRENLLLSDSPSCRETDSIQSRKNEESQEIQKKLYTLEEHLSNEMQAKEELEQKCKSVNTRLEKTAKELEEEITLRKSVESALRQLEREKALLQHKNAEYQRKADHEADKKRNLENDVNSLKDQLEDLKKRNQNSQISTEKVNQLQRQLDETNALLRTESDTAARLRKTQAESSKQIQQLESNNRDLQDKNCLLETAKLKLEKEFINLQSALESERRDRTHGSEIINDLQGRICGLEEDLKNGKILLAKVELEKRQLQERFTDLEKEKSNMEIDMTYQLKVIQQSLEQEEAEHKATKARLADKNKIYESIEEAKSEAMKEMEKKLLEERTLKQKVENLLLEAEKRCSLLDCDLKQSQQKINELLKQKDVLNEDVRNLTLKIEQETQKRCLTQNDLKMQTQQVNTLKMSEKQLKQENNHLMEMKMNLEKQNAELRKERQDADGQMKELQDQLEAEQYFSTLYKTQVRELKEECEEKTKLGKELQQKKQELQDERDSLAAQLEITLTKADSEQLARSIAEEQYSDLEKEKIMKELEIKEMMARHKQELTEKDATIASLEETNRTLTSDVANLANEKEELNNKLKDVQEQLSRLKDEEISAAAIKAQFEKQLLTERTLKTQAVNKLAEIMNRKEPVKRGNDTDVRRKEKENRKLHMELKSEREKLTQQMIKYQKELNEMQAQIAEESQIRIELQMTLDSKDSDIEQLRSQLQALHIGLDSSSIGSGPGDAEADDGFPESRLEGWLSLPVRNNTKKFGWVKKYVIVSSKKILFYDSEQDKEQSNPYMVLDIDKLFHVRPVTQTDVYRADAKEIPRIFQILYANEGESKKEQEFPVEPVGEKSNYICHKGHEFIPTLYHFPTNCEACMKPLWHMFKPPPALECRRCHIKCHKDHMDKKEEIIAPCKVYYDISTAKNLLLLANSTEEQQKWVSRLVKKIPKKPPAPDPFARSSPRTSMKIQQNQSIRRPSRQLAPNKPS
T1 sequence (Q13464 whole entry): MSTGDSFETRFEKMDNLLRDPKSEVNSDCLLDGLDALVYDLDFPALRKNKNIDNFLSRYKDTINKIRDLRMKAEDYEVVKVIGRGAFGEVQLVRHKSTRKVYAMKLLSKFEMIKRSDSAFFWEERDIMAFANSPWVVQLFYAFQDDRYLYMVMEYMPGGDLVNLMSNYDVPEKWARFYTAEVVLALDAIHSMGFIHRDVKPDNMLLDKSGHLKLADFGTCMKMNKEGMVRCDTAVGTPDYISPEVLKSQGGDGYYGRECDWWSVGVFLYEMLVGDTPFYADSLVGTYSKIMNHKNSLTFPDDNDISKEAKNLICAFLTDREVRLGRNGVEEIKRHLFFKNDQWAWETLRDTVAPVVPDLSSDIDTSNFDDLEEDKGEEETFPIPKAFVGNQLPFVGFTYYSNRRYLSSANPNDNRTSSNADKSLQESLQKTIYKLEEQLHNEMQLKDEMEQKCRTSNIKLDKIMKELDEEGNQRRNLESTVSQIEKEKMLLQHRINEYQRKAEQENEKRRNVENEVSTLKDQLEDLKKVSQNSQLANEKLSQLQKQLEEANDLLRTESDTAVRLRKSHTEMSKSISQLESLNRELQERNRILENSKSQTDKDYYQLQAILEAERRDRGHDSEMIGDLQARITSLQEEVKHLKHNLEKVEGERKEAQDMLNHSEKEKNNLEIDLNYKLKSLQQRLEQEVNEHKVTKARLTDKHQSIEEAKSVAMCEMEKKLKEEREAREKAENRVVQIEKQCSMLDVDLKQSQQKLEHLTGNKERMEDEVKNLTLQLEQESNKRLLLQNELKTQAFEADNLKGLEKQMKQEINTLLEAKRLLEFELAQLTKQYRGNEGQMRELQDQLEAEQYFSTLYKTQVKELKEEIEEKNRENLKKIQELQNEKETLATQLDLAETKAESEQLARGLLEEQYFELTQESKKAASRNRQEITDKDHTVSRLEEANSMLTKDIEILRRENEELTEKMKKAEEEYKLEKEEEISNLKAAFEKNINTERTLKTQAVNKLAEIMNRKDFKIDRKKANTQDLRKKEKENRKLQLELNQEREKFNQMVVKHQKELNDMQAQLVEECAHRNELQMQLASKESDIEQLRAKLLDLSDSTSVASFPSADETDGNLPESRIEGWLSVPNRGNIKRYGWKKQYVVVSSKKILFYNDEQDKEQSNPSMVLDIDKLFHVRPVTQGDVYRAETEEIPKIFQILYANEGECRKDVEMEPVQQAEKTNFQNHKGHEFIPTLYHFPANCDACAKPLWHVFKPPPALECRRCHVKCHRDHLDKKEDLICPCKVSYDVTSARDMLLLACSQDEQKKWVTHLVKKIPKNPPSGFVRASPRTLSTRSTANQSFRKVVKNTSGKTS

| SMILES | IC50 [1] | IC50 [2] | Ratio IC50 [3] | IC50 [4] | IC50 [5] |
| --- | --- | --- | --- | --- | --- |
| Cc1ccc(=O)n(-c2cccc(CN[C@H]3CCC[C@H](Nc4ccc5[nH]ncc5c4)C3)c2)c1 | 152 nM | 35.4 nM | 4 | – | – |
| O=c1cc(F)ccn1-c1cccc(CN[C@H]2CCC[C@H](Nc3ccc4[nH]ncc4c3)C2)c1 | 207 nM | 36.6 nM | 6 | – | – |
| CC(C)(C)c1ccn(-c2cccc(CN[C@H]3CCC[C@H](Nc4ccc5[nH]ncc5c4)C3)c2)c(=O)c1 | 210 nM | 1.3 nM | 162 | – | – |
| Nc1ccn(-c2ccc(CNC3CCCC(Nc4ccc5[nH]ncc5c4)C3)cc2)c(=O)n1 (stereo not given) | – | 0.7 nM | – | – | – |
| NC(=O)c1ccn(-c2cccc(CN[C@H]3CCC[C@H](Nc4ccc5[nH]ncc5c4)C3)c2)c(=O)c1 | 238 nM | 102 nM | 2 | – | – |
| Nc1ccn(-c2ccc(CN3CCCC(Nc4ccc5[nH]ncc5c4)C3)cc2)c(=O)n1 (stereo not given) | – | 5 nM | – | – | – |
| Cc1ccc(=O)n(-c2cccc(CN[C@H]3CCC[C@@H](Nc4ccc5[nH]ncc5c4)C3)c2)c1 | 102 nM | 138 nM | 1 | – | – |
| O=c1cc(-c2ccccc2)ccn1-c1cccc(CN[C@H]2CCC[C@@H](Nc3ccc4[nH]ncc4c3)C2)c1 | 99.4 nM | 1.7 nM | 59 | – | – |
| Cc1cccn(-c2cccc(CN[C@H]3CCC[C@H](Nc4ccc5[nH]ncc5c4)C3)c2)c1=O | 277 nM | 18.7 nM | 15 | – | – |
| N#Cc1ccn(-c2cccc(CN[C@H]3CCC[C@@H](Nc4ccc5[nH]ncc5c4)C3)c2)c(=O)c1 | 272 nM | 77.1 nM | 4 | – | – |
| Cc1ccn(-c2cccc(CN[C@H]3CCC[C@H](Nc4ccc5[nH]ncc5c4)C3)c2)c(=O)c1 | 171 nM | 26 nM | 7 | – | – |
| O=c1ccccn1-c1cccc(CN[C@H]2CCC[C@@H](Nc3ccc4[nH]ncc4c3)C2)c1 | 644 nM | 73.7 nM | 9 | – | – |
| O=c1cc(C(F)(F)F)ccn1-c1cccc(CN[C@H]2CCC[C@H](Nc3ccc4[nH]ncc4c3)C2)c1 | 279 nM | 173 nM | 2 | – | – |
| COc1cc(-c2cn[nH]c2)cc2c(=O)[nH]c(C3COc4ccc(OCCN(C)C)cc4C3)nc12 (stereo not given) | – | – | – | 12 nM | 150 nM |
| CC(C)(C)c1ccn(-c2cccc(CN[C@H]3CCC[C@@H](Nc4ccc5[nH]ncc5c4)C3)c2)c(=O)c1 | 335 nM | 1.6 nM | 216 | – | – |
| CCc1ccn(-c2cccc(CN[C@H]3CCC[C@@H](Nc4ccc5[nH]ncc5c4)C3)c2)c(=O)c1C | 313 nM | 6.1 nM | 52 | – | – |
| O=c1cc(F)ccn1-c1cccc(CN[C@H]2CCC[C@@H](Nc3ccc4[nH]ncc4c3)C2)c1 | 273 nM | 88.1 nM | 3 | – | – |
| Nc1ccn(-c2cccc(CN[C@H]3CCC[C@@H](Nc4ccc5[nH]ncc5c4)C3)c2)c(=O)c1 | – | 77.5 nM | – | – | – |

| SMILES | IC50 [1] | IC50 [2] | Ratio IC50 [3] | IC50 [4] | IC50 [5] |
| --- | --- | --- | --- | --- | --- |
| O=c1cc(C(F)(F)F)ccn1-c1cccc(CN[C@H]2CCC[C@@H](Nc3ccc4[nH]ncc4c3)C2)c1 | 967 nM | 207 nM | 5 | – | – |
| Nc1nc(=O)n(-c2cccc(CN[C@H]3CCC[C@@H](Nc4ccc5[nH]ncc5c4)C3)c2)cc1F | – | 83.7 nM | – | – | – |
| Cc1cccn(-c2cccc(CN[C@H]3CCC[C@@H](Nc4ccc5[nH]ncc5c4)C3)c2)c1=O | 811 nM | 153 nM | 5 | – | – |
| Nc1nc(=O)n(-c2cccc(CN[C@H]3CCC[C@H](Nc4ccc5[nH]ncc5c4)C3)c2)cc1F | – | 66.2 nM | – | – | – |
| Nc1ccn(-c2cccc(CN3CCCC(Nc4ccc5[nH]ncc5c4)C3)c2)c(=O)n1 (stereo not given) | – | 1 nM | – | – | – |
| Cc1ccn(-c2cccc(CN[C@H]3CCC[C@@H](Nc4ccc5[nH]ncc5c4)C3)c2)c(=O)c1 | 812 nM | 11.9 nM | 68 | – | – |
| Nc1ccn(-c2cccc(CN[C@H]3CCC[C@H](Nc4ccc5[nH]ncc5c4)C3)c2)c(=O)c1 | – | 54 nM | – | – | – |
| Nc1ccn(-c2ccc(CN3CCCCC(Nc4ccc5[nH]ncc5c4)C3)cc2)c(=O)n1 (stereo not given) | – | 2 nM | – | – | – |
| Cc1cc(=O)n(-c2cccc(CN[C@H]3CCC[C@H](Nc4ccc5[nH]ncc5c4)C3)c2)cc1N | – | 561 nM | – | – | – |
| Cc1cc(=O)n(-c2cccc(CN[C@H]3CCC[C@@H](Nc4ccc5[nH]ncc5c4)C3)c2)cc1F | 216 nM | 27 nM | 8 | – | – |
| CCc1ccn(-c2cccc(CN[C@H]3CCC[C@H](Nc4ccc5[nH]ncc5c4)C3)c2)c(=O)c1C | 209 nM | 13.1 nM | 16 | – | – |
| O=c1cc(-c2ccccc2)ccn1-c1cccc(CN[C@H]2CCC[C@H](Nc3ccc4[nH]ncc4c3)C2)c1 | 96.1 nM | 3 nM | 32 | – | – |
| NC(=O)c1ccn(-c2cccc(CN[C@H]3CCC[C@@H](Nc4ccc5[nH]ncc5c4)C3)c2)c(=O)c1 | 464 nM | 130 nM | 4 | – | – |
| Nc1ccn(-c2cccc(CNC3CCCC(Nc4ccc5[nH]ncc5c4)C3)c2)c(=O)n1 (stereo not given) | – | 0.2 nM | – | – | – |
| Cc1cc(=O)n(-c2cccc(CN[C@H]3CCC[C@@H](Nc4ccc5[nH]ncc5c4)C3)c2)cc1N | – | 434 nM | – | – | – |
| CC(C)CCC(=O)Nc1ccn([C@H]2CC[C@H](O[C@H]3O[C@H](C)[C@@H](N(C)C)[C@H](O)[C@H]3O)[C@@H](C)O2)c(=O)n1 | – | 72.8 nM | – | – | – |
| O=c1ccccn1-c1cccc(CN[C@H]2CCC[C@H](Nc3ccc4[nH]ncc4c3)C2)c1 | 162 nM | 42.4 nM | 4 | – | – |
